Series [1] concerns A2780 human ovarian carcinoma. The series is described as follows: In vivo antitumor efficacy in combination with cisplatin. The conditions noted are these: A2780 s.c. in athymic mice; Compound 1 15 mg/kg ip BID days 13-17; cisplatin 8 mg/kg iv day 17; combination: same doses and days. As for the experimental part: A2780 human ovarian carcinoma cells were obtained from American Type Culture Collection (Rockville, Md.) and were maintained in vitro as continuous cultures in RPMI medium supplemented with 10% FBS, at 37° C., 5% CO2. For in vivo experiments 8×10^6 A2780 cells were implanted subcutaneously in athymic mice.
(§1) The treatment started when tumors were palpable (day 13). Both compounds were prepared immediately before treatment.
Tumor growth was assessed by caliper. […] Animals were sacrificed on day 37 after tumor implant, day 24 from the start of treatments and tumors were weighted. The effect of the antitumor treatment was evaluated as percentage of tumor growth inhibition of the treated group respect to control.

Series [2] has as its system BX-PC3 human pancreatic carcinoma. In words: In vivo antitumor efficacy in combination with gemcitabine. Particulars: BX-PC3 s.c. in athymic mice; compound 1 15 mg/kg ip BID days 9-17; gemcitabine 80 mg/kg iv days 9, 13, 17; combination: gemcitabine days 9, 13, 17, compound 1 days 10, 11, 12, 14, 15, 16, 18, 19, 20. As for the experimental part:
Fragments of BX-PC3 human pancreatic carcinoma were implanted subcutaneously in athymic mice. […] The treatment with gemcitabine started at day 9 after tumor implantation, when tumors were palpable. Compounds were prepared immediately before treatments.
When combined, gemcitabine was administered at days 9, 13, 17 and compound 1 was administered for the following 3 days after gemcitabine administration. […] Tumor growth was assessed by caliper. […] The effect of the antitumor treatment was evaluated as percentage of tumor growth inhibition (TGI %). Toxicity was evaluated on the basis of body weight reduction.

The subject of series [3] is DU145 prostate carcinoma. Particulars: DU145 s.c. in athymic mice; delay to reach 1 g tumor; Compound 1 30 mg/kg ip BID days 10-18; docetaxel 7.5 mg/kg iv days 10, 14, 18; combination: docetaxel days 10, 14, 18, Compound 1 days 11, 12, 13, 15, 16, 17, 19, 20, 21. As for the experimental part: Balb, Nu\Nu male mice, from Harlan (Italy), were maintained in cages with paper filter cover, food and bedding sterilized and water acidified. 2.5×10^6 DU145 prostate carcinoma cells (from the American Type Culture Collection) were injected subcutaneously in athymic mice.
The treatment started 10 days later tumor cells injection when tumors were palpable. Docetaxel was prepared immediately before treatment, compound 1 of formula (A) was prepared daily, on the basis of known stability of the compound.
Compound 1 was administered by intraperitoneal route in a volume of 10 ml/kg at the doses of 30 mg/kg twice a day (BID) for 9 days (days 10 to 18). Docetaxel was administered by intravenous route in a volume of 10 ml/kg at the dose of 7.5 mg/kg on days 10, 14, 18 from the days of cell injection. When combined, compound 1 was administered in the interval between the docetaxel treatments at days 11, 12, 13, 15, 16, 17, 19, 20 and 21. Tumor growth and body weight were measured every 3 days. Tumor growth was assessed by caliper. The two diameters were recorded and the tumor weight was calculated according the following formula:
length (mm)×width^2/2. The effect of the antitumor treatment was evaluated as the delay in the onset of an exponential growth of the tumor (see for references, Anticancer drugs 7:437-60, 1996). […] Toxicity was evaluated on the basis of body weigh reduction.

In series [4] the test system is A2780 human ovarian carcinoma. The series is described as follows: In vivo antitumor efficacy of the combination with irinotecan. Particulars: for TGI %: A2780 s.c. in athymic mice, Compound 1 30 mg/kg ip BID days 13-17, irinotecan 60 mg/kg iv day 13, combination: irinotecan 50 mg/kg day 13 + Compound 1 30 mg/kg days 13-17. As to the method:
A2780 human ovarian carcinoma cells were obtained from American Type Culture Collection (Rockville, Md.) and were maintained in vitro as continuous cultures in RPMI medium supplemented with 10% FBS, at 37° C., 5% CO2. For in vivo experiments 8×10^6 A2780 were implanted subcutaneously in athymic mice. This tumor model was selected because it was sensitive to platinum derivatives and also on the basis of use of this drugs in ovarian cancer.
as §1
When combined, compound 1 was administered from day 1 to day 5, irinotecan at day 1. […] Tumor growth was assessed by caliper. […] Animals were sacrificed on day 37 after tumor implant, day 24 from the start of treatments and tumors were weighted. The effect of the antitumor treatment was evaluated as percentage of tumor growth inhibition of the treated group respect to control.

SMILES strings stand for the structures.

With `N.N.[Cl][Pt][Cl]` [Cisplatin, cisplatin], the TGI % in series [1] turned out to be 21%. Consider `CO[C@@H](C(=O)N1Cc2[nH]nc(NC(=O)c3ccc(N4CCN(C)CC4)cc3)c2C1)c1ccccc1` [Compound 1, N-{5-[(2R)-2-methoxy-2-phenylethanoyl]-1,4,5,6-tetrahydropyrrolo[3,4-c]pyrazol-3-yl}-4-(4-methylpiperazin-1-yl)benzamide], for which the results for the TGI % in series [2], in series [1] and in series [4] were 53%, 46% and 72.3%, respectively. Besides, the “T-C” value in series [3] was 5.3 days. For `CC(=O)O[C@@]12CO[C@@H]1C[C@H](O)[C@@]1(C)C(=O)[C@H](O)C3=C(C)[C@@H](OC(=O)[C@H](O)[C@@H](NC(=O)OC(C)(C)C)c4ccccc4)C[C@@](O)([C@@H](OC(=O)c4ccccc4)[C@H]21)C3(C)C` [docetaxel], the “T-C” value in series [3] amounted to 3.7 days. Take `Nc1ccn([C@@H]2O[C@H](CO)[C@@H](O)C2(F)F)c(=O)n1` [gemcitabine]: the TGI % in series [2] was found to be 61%. As to `CCc1c2c(nc3ccc(OC(=O)N4CCC(N5CCCCC5)CC4)cc13)-c1cc3c(c(=O)n1C2)COC(=O)[C@]3(O)CC` [irinotecan], the TGI % in series [4] is on record as 62%. The Toxicity in series [4] (evaluated on the basis of body weight reduction, A2780 mice, Compound 1 30 mg/kg ip BID, irinotecan iv, alone or combined) was 0/7.
